Values joined by “and” are separate entries in the source; they are usually repeats but may differ in a detail not shown here. Identical values can stand only once.
Experiments:
Type in all cases: in vivo
Fmr1 KO mice [1] = test: Three chamber partition test (sociability); set-up: Mean Diff., N_WT-V vs. treated KO (Sociability) / Mean 2, treated KO group (Sociability) / Mean Diff., F_KO-V vs. F_KO treated (Sociability) / Mean Diff., F_KO-V vs. N_KO treated (Sociability) / Mean 2, F_KO treated group (Sociability) / Mean 2, N KO treated group (Sociability) / Mean 2, N_KO treated group (Sociability) / Data table Sociability, F_KO-Sumatriptan / Data table Sociability, N_KO-Sumatriptan / Data table Sociability, F_KO-Oxitriptan: unit not given here
Experimental: (§1) Fmr1 KO mice backcrossed to the FVB strain and WT littermates were used during experiments. TransnetXY Automated Genotyping (www.transnetyx.com/). TRANSNETYX, INC., 8110 Cordova Rd. Suite 119, Cordova, TN 38016, USA was used for genotyping. The animals were pretreated for 14 days. The active ingredients of Sumatriptan and Ergoloid were in a water carrier, whereas oxitriptan was in a methanol carrier.
(§2) The mice were housed in plastic cages (35×30×12 cm), 5 in each. The room temperature (21±2° C.), relative humidity (55±5%), a 12-h light-dark cycle (lights on 7 a.m.-7 p.m.) and air exchange (16 times per h) were automatically controlled. The animals had free access to commercial food pellets and water. Testing was conducted during the light phase. Ten mice per treatment group were used for the AGS experiments. Experiments were conducted in line with the requirements of the UK Animals (Scientific Procedures) Act, 1986.
(§3) All experiments were conducted with the experimenter blind to genotype and drug treatment. Separate investigators prepared and coded dosing solutions, allocated the mice to the study treatment groups, dosed the animals, and collected the Audiogenic Seizure data.
(§4) Behavior testing was conducted at 2 weeks. The behavioral tests were as follows: 1. Hyperactivity: Open field; 2. Stereotypy: Self-grooming; 3. Sociability: Three chamber partition test; 4. Memory and Learning: Novel Object Recognition; 5. Anxiety: hyponeophagia; and 6. Test of daily living: marble burying
For sociability a three chamber partition test was utilized. The three-chamber paradigm test known as Crawley's sociability and preference for social novelty protocol has previously been successfully employed to study social affiliation and social memory in several inbred and mutant mouse lines. The main principle of the test was based on the free choice by a subject mouse to spend time in any of three box's compartments during two experimental sessions, including indirect contact with one or two mice with which it was unfamiliar (Kaidanovich-Beilin 2011).
(§5) The treatment of the mice with OX (Oxitriptan), SU (Sumatriptan), ER (Ergoloid mesylates, also referred to as ergoloid herein) were according to the matrix shown below in Table 1. […]

Fmr1 KO mice [2] = test: Hyponeophagia test (anxiety)
Experimental: as §1, §2, §3, §4
For anxiety a hyponeophagia test was conducted. Mice and rats cannot vomit, due to the tightness of the cardiac sphincter of the stomach, so to overcome the problem of potential food toxicity they have evolved a strategy of first ingesting only very small amounts of novel substances. The amounts ingested then gradually increase until the animal has determined whether the substance is safe and nutritious. So the old rat-catchers would first put a palatable substance such as oatmeal, which was to be the vehicle for the toxin, in the infested area (Deacon 2011).
(§6) The treatment of the mice with OX (Oxitriptan), SU (Sumatriptan), ER (Ergoloid mesylates, also referred to as ergoloid herein) were according to the matrix shown below in Table 1.
(§7) The experimental procedures described above for Example 1 were used in the following tests, as well as the addition of two further behaviour tests as described below. An SSRI (selective serotonin re-uptake inhibitor) was co-dosed with the ergoloid mesylates and oxitriptan to assess the effect of the ergoloid mesylates and oxitriptan treatment on a subject already receiving SSRI treatment.
(§8) The treatment of the mice with OX (Oxitriptan), ER (Ergoloid mesylates) and FL (fluvoxamine) were according to the matrix shown below in Table 21. The triple combination involved dosing of 2 mg/kg ergoloid mesylates, 40 mg/kg oxitriptan and 40 mg/kg of fluvoxamine (the SSRI).

Fmr1 KO mice [3] = test: Test of daily living (nesting; marble burying)
Experimental: as §1, §2, §3, §4
For test of daily living, nesting was assessed as nest building is an innate behavior in rodents, even when raised in laboratory settings. Synthetic and/or natural materials (such as twine, tissue, cotton, paper, and hay) are provided as a gauge of their overall well-being and as an ancillary assessment to predict the possible decline in cognition. Typically, changes in nesting behaviors, such as failure to create a nest, indicate a change in health or welfare. In addition, nesting behavior is sensitive to many environmental and physiological challenges, as well as many genetic mutations underlying pathological disease states (Gaskill 2013).
as §6, §7, §8

Fmr1 KO mice [4] = test: Open field test (hyperactivity)
Experimental: as §1, §2, §3, §4
For hyperactivity, the open field test (OFT) is a common measure of exploratory behavior and general activity in both mice and rats, where both the quality and quantity of the activity can be measured. Principally, the open field (OF) is an enclosure, generally square, rectangular, or circular in shape with surrounding walls that prevent escape. The OFT is also commonly used as a mechanism to assess the sedative, toxic, or stimulant effects of compounds (Gould 2009).
as §6, §7, §8

Fmr1 KO mice [5] = test: Self-grooming (stereotypy); settings: Dunnett's test, alpha 0.05; doses as E31
Experimental: as §1, §2, §3
Behavior testing was conducted at 2 weeks. The behavioral tests were as follows: 1. Hyperactivity: Open field; 2. Stereotypy: Self-grooming; 3. […]
For stereotypy, self-grooming was assessed. […]

Fmr1 KO mice [6] = test: Novel Object Recognition (memory and learning); set-up: Mean Diff., N_WT-V vs. treated KO (NOR) / Mean 2, treated KO group (NOR) / Mean Diff., F_KO-V vs. F_KO treated (NOR) / Mean Diff., F_KO-V vs. N_KO treated (NOR) / Mean 2, F_KO treated group (NOR) / Mean 2, N_KO treated group (NOR): unit not given here
Experimental: as §1, §2, §3, §4
For memory and learning, a novel object recognition (NOR) task was used to evaluate the rodents' ability to recognize a novel object in the environment. […] The task procedure consists of three phases: habituation, familiarization, and test phase (Antunes 2012).
as §5

[7] = F_ groups, mg/kg: Sumatriptan 20, Oxitriptan 40, Ergoloid 4, Ergoloid 2+Oxitriptan 40 (Column M)
[8] = F_, KO mice, Sumatriptan 20 mg/kg, individual animals
[9] = N_ groups, mg/kg: Sumatriptan 20, Oxitriptan 40, Ergoloid 4, Ergoloid 2+Oxitriptan 40
[10] = N_ groups, mg/kg: Sumatriptan 20, Oxitriptan 40, Ergoloid 4, F_KO Ergoloid 2+Sumatriptan 10, N_KO Ergoloid 2+Oxitriptan 40
[11] = KO mice, mg/kg: Sumatriptan 20, Oxitriptan 40, Ergoloid 4, Ergoloid 2+Sumatriptan 10, Ergoloid 2+Oxitriptan 40

Compound: CNS(=O)(=O)Cc1ccc2[nH]cc(CCN(C)C)c2c1 [Sumatriptan]
- Significant? F_KO-V vs. F_KO treated (Sociability) (Fmr1 KO mice [1]; Dunnett's test, alpha 0.05, F_ groups, doses as E56): Yes
- Significant? F_KO-V vs. N_KO treated (Sociability) (Fmr1 KO mice [1]; Dunnett's test, alpha 0.05, N_ groups, doses as E61): Yes
- Significant? N_WT-V vs. treated KO (Sociability) (Fmr1 KO mice [1]; Dunnett's test, alpha 0.05, groups and doses as E21): No
- Summary, N_WT-V vs. treated KO (Sociability) (Fmr1 KO mice [1]; Dunnett's test, groups and doses as E21): ns
- Mean Diff., F_KO-V vs. F_KO treated (Sociability) (Fmr1 KO mice [1]; [7]): 19.40
- Data table Sociability, F_KO-Sumatriptan (Fmr1 KO mice [1]; [8]): 61 (2×) and 64 and 65 (2×) and 60 (3×) and 63 (2×)
- Data table Sociability, N_KO-Sumatriptan (Fmr1 KO mice [1]; KO mice, Sumatriptan 20 mg/kg, individual animals): 99 and 97 (2×) and 103 and 98 and 90 and 102 and 100 and 95 and 101
- Mean Diff., F_KO-V vs. N_KO treated (Sociability) (Fmr1 KO mice [1]; [9]): −16.80
- Mean Diff., N_WT-V vs. treated KO (Sociability) (Fmr1 KO mice [1]; [10]): 0.9000
- Mean 2, F_KO treated group (Sociability) (Fmr1 KO mice [1]; comparison against F_KO-V, doses as E56): 62.20
- Mean 2, N KO treated group (Sociability) (Fmr1 KO mice [1]; comparison against F_KO-V, doses as E61): 98.2
- Mean 2, treated KO group (Sociability) (Fmr1 KO mice [1]; comparison against N_WT-V, groups and doses as E21): 98.20
- Significant? WT-V vs. treated KO (Hyponeophagia) (Fmr1 KO mice [2]; Dunnett's test, alpha 0.05, doses as E6): Yes
- Significant? KO-V vs. treated KO (Hyponeophagia) (Fmr1 KO mice [2]; Dunnett's test, alpha 0.05, doses as E36): Yes
- Mean Diff., WT-V vs. treated KO (Hyponeophagia) (Fmr1 KO mice [2]; [11]): −9.200
- Significant? WT-V vs. treated KO (Test of daily living) (Fmr1 KO mice [3]; Dunnett's test, alpha 0.05, doses as E11): No
- Significant? KO-V vs. treated KO (Test of daily living) (Fmr1 KO mice [3]; Dunnett's test, alpha 0.05, doses as E41): Yes
- Summary, WT-V vs. treated KO (Test of daily living) (Fmr1 KO mice [3]; Dunnett's test, doses as E11): ns
- Mean Diff., WT-V vs. treated KO (Test of daily living) (Fmr1 KO mice [3]; [11]): 0.1000
- Mean 2, treated KO group (Test of daily living) (Fmr1 KO mice [3]; comparison against KO-V, doses as E41): 4.700
- Mean 2, treated KO group (Test of daily living) (Fmr1 KO mice [3]; comparison against WT-V, doses as E11): 4.700
- Below threshold? WT-V vs. treated KO (Open Field) (Fmr1 KO mice [4]; Dunnett's test, alpha 0.05, doses as E1): Yes
- Significant? KO-V vs. treated KO (Open Field) (Fmr1 KO mice [4]; Dunnett's test, alpha 0.05, doses as E26): Yes
- Mean Diff., KO-V vs. treated KO (Open Field) (Fmr1 KO mice [4]; KO mice, mg/kg: Sumatriptan 20, Oxitriptan 80, Ergoloid 4, Ergoloid 2+Oxitriptan 40): 846.8
- Significant? KO-V vs. treated KO (Stereotypy) (Fmr1 KO mice [5]): Yes
- Significant? F_KO-V vs. F_KO treated (NOR) (Fmr1 KO mice [6]; Dunnett's test, alpha 0.05, F_ groups, doses as E46): No
- Significant? F_KO-V vs. N_KO treated (NOR) (Fmr1 KO mice [6]; Dunnett's test, alpha 0.05, N_ groups, doses as E51): No
- Significant? N_WT-V vs. treated KO (NOR) (Fmr1 KO mice [6]; Dunnett's test, alpha 0.05, groups and doses as E16): Yes
- Summary, F_KO-V vs. F_KO treated (NOR) (Fmr1 KO mice [6]; Dunnett's test, F_ groups, doses as E46): ns
- Summary, F_KO-V vs. N_KO treated (NOR) (Fmr1 KO mice [6]; Dunnett's test, N_ groups, doses as E51): ns
- Mean Diff., F_KO-V vs. F_KO treated (NOR) (Fmr1 KO mice [6]; [7]): −0.2000
- Data table Novel Object Recognition, F_KO-Sumatriptan (Fmr1 KO mice [6]; [8]): 6
- Mean Diff., F_KO-V vs. N_KO treated (NOR) (Fmr1 KO mice [6]; [9]): −0.7000
- Mean Diff., N_WT-V vs. treated KO (NOR) (Fmr1 KO mice [6]; [10]): 6.600
- Mean 2, F_KO treated group (NOR) (Fmr1 KO mice [6]; comparison against F_KO-V, doses as E46): 5.800
- Mean 2, N_KO treated group (NOR) (Fmr1 KO mice [6]; comparison against F_KO-V, doses as E51): 7.300
- Mean 2, treated KO group (NOR) (Fmr1 KO mice [6]; comparison against N_WT-V, groups and doses as E16): 7.300
